Experimental data from patent publication US20220071932A1, “Compositions and Methods Against Stress-Induced Affective Disorders and Their Associated Symptoms” (The Trustees of Columbia University in the City of New York, priority 2019, published 2022).

Tests used:
[1] = system: 129S6/SvEv mice; test: Contextual fear conditioning (CFC), 3-shock; freezing; type: in vivo; settings: for CFC Training, Average Freezing, p (Fisher's LSD): FIG. 8C; for p, Freezing (%), CFC Re-exposure 2, (R,S)-ketamine vs. FENM / p, Freezing (%), CFC Re-exposure 2, Saline vs. drug: drug 5 min after re-exposure 1; for p, Freezing (%), CFC Re-exposure 2, (R,S)-ketamine vs. FENM: (R,S)-ketamine 30 mg/kg vs. FENM 20 mg/kg
Protocol: A 3-shock CFC paradigm was administered as previously described (45, 46). CFC was conducted in chambers obtained from Med Associates (St. Albans, Vt.), with internal dimensions of approximately 20 cm wide×16 cm deep×20.5 cm high. The chambers had metal walls on each side, clear plastic front and back walls and ceilings, and stainless-steel bars on the floor. A house light (CM1820 bulb, 28v, 100 mA) mounted directly above the chamber provided illumination. Each chamber was located inside a larger, insulated, plastic cabinet that provided protection from outside light and noise. Each cabinet contained a ventilation fan that was operated during the sessions. A paper towel dabbed with lemon solution was placed underneath the chamber floor. Mice were held outside the experimental room in their home cages prior to testing and transported to the conditioning apparatus individually in standard mouse cages Chambers were cleaned with 70% EtOH between each set of mice. Mice were placed into the conditioning chamber and received shocks at 180 s, 240 s, and 300 s (2 s duration, 0.75 mA). Fifteen seconds after the last shock, mice were removed from the chamber. Overall, the training session lasted 317 s. […] All sessions were scored for freezing using FreezeFrame4.

[2] = system: 129S6/SvEv mice; test: Elevated plus maze (EPM); type: in vivo; settings: for distance travelled in the EPM / time spent in the open arms and center of the EPM: (R,S)-ketamine 30 mg/kg, FENM 10, 20 or 30 mg/kg
Protocol: Testing was performed as previously described (47). Briefly, the maze is a plus-cross-shaped apparatus consisting of four arms, two open and two enclosed by walls, linked by a central platform at a height of 50 cm from the floor. Mice were individually placed in the center of the maze facing an open arm and were allowed to explore the maze for 5 min. The time spent in and the number of entries into the open arms was used as an anxiety index. Videos were scored using ANY-maze behavior tracking software (Stoelting, Wood Dale, Ill.).

[3] = 30 mg/kg, drug 5 minutes after stress, FIG. 2C
[4] = 5 min prior to CFC, (R,S)-ketamine 30 mg/kg, FENM 20 mg/kg, vs saline
[5] = (R,S)-ketamine (30 mg/kg) vs. FENM (20 mg/kg), FIG. 8D
[6] = (R,S)-ketamine (30 mg/kg) vs. FENM (20 mg/kg), FIG. 8F
[7] = Saline vs. FENM (20 mg/kg), FIG. 8D
[8] = Saline vs. FENM (20 mg/kg), FIG. 8F
[9] = dose (20), drug 5 minutes after stress, FIG. 2C
[10] = 5 minutes after CFC, re-exposure 5 days after training, vs saline

NC12CC3CC(C1)CC(CCF)(C3)C2 [FENM, 1-amino-3-fluoroethyl-adamantane]
p, Fisher's PLSD Saline vs. drug, CFC Re-exposure Freezing Min 3 (%) [1, 3]: 0.3540
p, Fisher's PLSD Saline vs. drug, CFC Re-exposure Freezing Min 4 (%) [1, 3]: 0.0503
p, Fisher's PLSD Saline vs. drug, CFC Re-exposure Freezing Min 5 (%) [1, 3]: 0.3078
p, Fisher's PLSD Saline vs. drug, CFC Re-exposure Freezing (%) ([1]; 30 mg/kg, drug 5 minutes after stress, after RMANOVA, FIG. 2C): 0.2420
fear expression during CFC re-exposure ([1]; 1 week prior to CFC, (R,S)-ketamine 30 mg/kg, FENM 20 and 30 mg/kg, vs saline): decreased fear expression
fear expression during re-exposure 2 ([1]; 5 min after context re-exposure 1 (24 h before re-exposure 2), (R,S)-ketamine 30 mg/kg, FENM 20 mg/kg, vs saline): significantly decreased fear expression
fear expression during CFC re-exposure 1 [1, 4]: but not FENM significantly decreased
fear expression during CFC re-exposure 2 [1, 4]: significantly increased fear expression
freezing during CFC training [1, 4]: but not FENM, increased freezing
CFC Training, Average Freezing, p (Fisher's LSD) ([1]; (R,S)-ketamine (30 mg/kg) vs. FENM (20 mg/kg)): 0.0029
CFC Re-exposure 1, Freezing Min 1 (%), p (Fisher's LSD) [1, 5]: <0.0001
CFC Re-exposure 1, Freezing Min 2 (%), p (Fisher's LSD) [1, 5]: <0.0001
CFC Re-exposure 1, Freezing Min 3 (%), p (Fisher's LSD) [1, 5]: <0.0001
CFC Re-exposure 1, Freezing Min 4 (%), p (Fisher's LSD) [1, 5]: <0.0001
CFC Re-exposure 1, Freezing Min 5 (%), p (Fisher's LSD) [1, 5]: <0.0001
CFC Re-exposure 2, Freezing Min 1 (%), p (Fisher's LSD) [1, 6]: 0.1684
CFC Re-exposure 2, Freezing Min 2 (%), p (Fisher's LSD) [1, 6]: <0.0001
CFC Re-exposure 2, Freezing Min 3 (%), p (Fisher's LSD) [1, 6]: <0.0001
CFC Re-exposure 2, Freezing Min 4 (%), p (Fisher's LSD) [1, 6]: <0.0001
CFC Re-exposure 2, Freezing Min 5 (%), p (Fisher's LSD) [1, 6]: <0.0001
CFC Re-exposure 1, Freezing (%), p (Fisher's LSD) ([1]; (R,S)-ketamine (30 mg/kg) vs. FENM (20 mg/kg), after ANOVA, FIG. 8E): <0.0001
CFC Re-exposure 2, Freezing (%), p (Fisher's LSD) ([1]; (R,S)-ketamine (30 mg/kg) vs. FENM (20 mg/kg), after ANOVA, FIG. 8G): <0.0001
CFC Re-exposure 1, Freezing (%), p (Fisher's LSD) ([1]; (R,S)-ketamine (30 mg/kg) vs. FENM (20 mg/kg), after RMANOVA, FIG. 8D): <0.0001
CFC Re-exposure 2, Freezing (%), p (Fisher's LSD) ([1]; (R,S)-ketamine (30 mg/kg) vs. FENM (20 mg/kg), after RMANOVA, FIG. 8F): <0.0001
CFC Training, Freezing, p (Fisher's LSD) ([1]; (R,S)-ketamine (30 mg/kg) vs. FENM (20 mg/kg), after RMANOVA, FIG. 8 cohort): 0.0029
Behavior: Fear ([1]; Extinction (5 min after re-exposure 1), dose 20 mg/kg): ↓
p, Freezing (%), CFC Re-exposure 2, (R,S)-ketamine vs. FENM ([1]; Fisher's LSD after ANOVA, FIG. 4G): 0.0248
p, Freezing (%), CFC Re-exposure 2, Saline vs. drug ([1]; Fisher's LSD after ANOVA, FENM 20 mg/kg, (R,S)-ketamine 30 mg/kg, FIG. 4G): 0.0281
p, Freezing (%), CFC Re-exposure 2, (R,S)-ketamine vs. FENM ([1]; Fisher's LSD after RMANOVA, FIG. 4F): 0.0248
p, Freezing (%), CFC Re-exposure 2, Saline vs. drug ([1]; Fisher's LSD after RMANOVA, FENM 20 mg/kg, ketamine 30 mg/kg, FIG. 4F): 0.0281
p, Freezing (%), CFC Training, Saline vs. drug ([1]; Fisher's LSD after RMANOVA, drug 5 min before CFC, (R,S)-ketamine 30 mg/kg, FENM dose lies beyond the rows shown, FIG. 8B): 0.9251
Behavior: Fear ([1]; Prophylactic (5 min before stress), dose 20 mg/kg): ↑
Behavior: Fear ([1]; Prophylactic (7 days before stress), dose 20 mg/kg): ↓
Behavior: Fear ([1]; Prophylactic (7 days before stress), dose 30 mg/kg): ↓
CFC Training, Average Freezing, p (Fisher's LSD) ([1]; Saline vs. FENM (20 mg/kg)): 0.9251
CFC Re-exposure 1, Freezing Min 1 (%), p (Fisher's LSD) [1, 7]: 0.0008
CFC Re-exposure 1, Freezing Min 2 (%), p (Fisher's LSD) [1, 7]: 0.0075
CFC Re-exposure 1, Freezing Min 3 (%), p (Fisher's LSD) [1, 7]: 0.1384
CFC Re-exposure 1, Freezing Min 4 (%), p (Fisher's LSD) [1, 7]: 0.7601
CFC Re-exposure 1, Freezing Min 5 (%), p (Fisher's LSD) [1, 7]: 0.4751
CFC Re-exposure 2, Freezing Min 1 (%), p (Fisher's LSD) [1, 8]: 0.5432
CFC Re-exposure 2, Freezing Min 2 (%), p (Fisher's LSD) [1, 8]: 0.0173
CFC Re-exposure 2, Freezing Min 3 (%), p (Fisher's LSD) [1, 8]: 0.0053
CFC Re-exposure 2, Freezing Min 4 (%), p (Fisher's LSD) [1, 8]: 0.3068
CFC Re-exposure 2, Freezing Min 5 (%), p (Fisher's LSD) [1, 8]: 0.3729
CFC Re-exposure 1, Freezing (%), p (Fisher's LSD) ([1]; Saline vs. FENM (20 mg/kg), after ANOVA, FIG. 8E): 0.0665
CFC Re-exposure 2, Freezing (%), p (Fisher's LSD) ([1]; Saline vs. FENM (20 mg/kg), after ANOVA, FIG. 8G): 0.0173
CFC Re-exposure 1, Freezing (%), p (Fisher's LSD) ([1]; Saline vs. FENM (20 mg/kg), after RMANOVA, FIG. 8D): 0.0665
CFC Re-exposure 2, Freezing (%), p (Fisher's LSD) ([1]; Saline vs. FENM (20 mg/kg), after RMANOVA, FIG. 8F): 0.0173
p, Fisher's PLSD Saline vs. drug, CFC Re-exposure Freezing Min 1 (%) [1, 9]: 0.1072
p, Fisher's PLSD Saline vs. drug, CFC Re-exposure Freezing Min 2 (%) [1, 9]: 0.0080
p, Fisher's PLSD Saline vs. drug, CFC Re-exposure Freezing Min 3 (%) [1, 9]: 0.1619
p, Fisher's PLSD Saline vs. drug, CFC Re-exposure Freezing Min 4 (%) [1, 9]: 0.5390
p, Fisher's PLSD Saline vs. drug, CFC Re-exposure Freezing Min 5 (%) [1, 9]: 0.8801
p, Fisher's PLSD Saline vs. drug, CFC Re-exposure Freezing (%) ([1]; dose (20), drug 5 minutes after stress, after RMANOVA, FIG. 2C): 0.1188
behavior during CFC training ([1]; one week prior to 3-shock CFC (c-fos / Western blot cohort), (R,S)-ketamine 30 mg/kg, FENM 20 mg/kg, vs saline): did not alter behavior
freezing upon re-exposure ([1]; one week prior to 3-shock CFC, re-exposed five days later, (R,S)-ketamine 30 mg/kg, FENM 20 mg/kg, vs saline): significantly reduced freezing
distance travelled in the EPM ([2]; 1 week prior to CFC, vs saline): did not alter
time spent in the open arms and center of the EPM ([2]; 1 week prior to CFC, vs saline): did not alter
distance travelled in the EPM [2, 10]: did not alter
time spent in the open arms and center of the EPM [2, 10]: did not alter
time in the open arms, closed arms, and center of the EPM ([2]; non-stressed mice, FENM 20 mg/kg 1 hour before the start of the OF, vs saline): comparable
p, Time in Open Arms (sec), EPM, Saline vs. FENM ([2]; t-test, Baseline, anxiety cohort, FENM 20 mg/kg, FIG. 7G): 0.5729
p, Time in Closed Arms (sec), EPM, Saline vs. FENM ([2]; t-test, Baseline, anxiety cohort, FENM 20 mg/kg, FIG. 7H): 0.5729
p, Time in Center (sec), EPM, Saline vs. FENM ([2]; t-test, Baseline, anxiety cohort, FENM 20 mg/kg, FIG. 7I): 0.3211
